Test results published in US10435385B2, “Amide derivatives, process for preparation thereof and use thereof as insecticide” (MITSUI CHEMICALS, INC., priority 2004, dated 2019).

What was measured:
[1] = tested on: diamondback moth (Plutella xylostella); assay: Insecticidal testing against diamondback moth (cabbage leaf dip, second-stage larvae); format: in vivo; details: comparative test, procedure and conditions of Experimental Example 2
Method: (§1) Insecticidal Testing Against Diamondback Moth (Plutella xylostella) Cabbage leaves were immersed in a liquid comprising the testing compound to a predetermined concentration for 30 seconds and air-dried. They were placed in a 7-cm polyethylene cup, and the second-stage larvae of diamondback moth were left therein. The cup was placed in a constant-temperature room at 25° C., and the survival rate was investigated after 3 days. The test was carried out with two groups of 5 larvae per group. As a result, Compound No. (to be described later)

[2] = tested on: common cutworm (Spodoptera litura); assay: Insecticidal testing against common cutworm (cabbage leaf dip, second-stage larvae); format: in vivo; details: comparative test, procedure and conditions of Experimental Example 1
Method: as §1, with “Common Cutworm (Spodoptera litura)” for “Diamondback Moth (Plutella xylostella)”, “common cutworm” for “diamondback moth”

| Structure (SMILES) | insecticidal activity [1] | insecticidal activity [2] |
| --- | --- | --- |
| Cc1cc(C(F)(C(F)(F)F)C(F)(F)F)ccc1NC(=O)c1cccc(NC(=O)c2ccccc2I)c1 [Compound A, N-(4-heptafluoroisopropyl-2-methyl)phenyl 3-(2-iodobenzoylamino)benzamide] | not observed | not observed |
| Cc1cc(C(F)(F)F)cc(C)c1NC(=O)c1cccc(NC(=O)c2ccccc2)c1 [Compound B, N-(2,6-dimethyl-4-trifluoromethyl)phenyl 3-(benzoylamino)benzamide] | not observed | not observed |
